Assay results as given in patent US20230257373A1, “QUORUM SENSING INHIBITORS AND METHODS OF USE” (priority 2020, published 2023).
Where two headings read alike, the source gives them in different places.

Columns and labels:
OpaR = assay: E. coli bioassay expressing OpaR (IPTG-inducible plasmid); assay type: cell-based, V. parahaemolyticus; details: 25 μM PTSP
Description: (§1) We hypothesized that there were several possible reasons for the observed difference in PTSP inhibition in the various Vibrio species, including but not limited to: 1) differences in LuxR-inhibitor interaction(s), 2) differences in diffusion of the inhibitor across the membranes, or 3) stability of the inhibitor in the cell and/or cell culture. To examine PTSP activity in a common strain background, we cloned the luxR gene from each Vibrio species into a plasmid under control of an IPTG-inducible promoter and assayed the effect of PTSP against these proteins in the E. coli bioassay. […] We conclude that the differences in PTSP activity in Vibrio species is due to differences in interaction between PTSP and the LuxR-type protein in each Vibrio.
(§2) In E. coli assays expressing the five different LuxR-type proteins (luxR, smcR, opaR, vcpR, hapR), slight changes to the protocol were implemented. The luxR genes were cloned under control of the IPTG-inducible Ptac promoter in plasmid pMMB67EH-kanR. […] Strains expressing hapR or smcR required 50 μM IPTG to observe activation of the GFP reporter; IPTG was not added to strains expressing luxR, vcpR, or opaR.

SmcR [1] = target: T1, SmcR (Vibrio vulnificus, UniProt Q9L8G8); assay: E. coli bioassay expressing SmcR (IPTG-inducible plasmid); assay type: cell-based, V. vulnificus
Description: as §1
We therefore sought to determine if any of the four residues that differ between HapR and LuxR/SmcR in the putative ligand binding pocket are sufficient to render SmcR insensitive to PTSP. First, we introduced substitutions in SmcR to mimic the amino acid sequence of HapR: F75Y, I96L, […], and C170F. […] Next, we introduced single substitutions in HapR to mimic the amino acid present in SmcR: Y76F, L97I, I141V, and F171C.
as §2

[2] = tested on: V. vulnificus protease activity; assay: Protease assay (azocasein) in V. vulnificus; details: for IC50: Vibrio vulnificus
SmcR [3] = target: T1, SmcR; assay: EMSA DNA binding activity of SmcR; assay type: biochemical, V. vulnificus; details: saturating concentrations
Method: We noted that Qstatin and PTSP are both predicted to bind in the putative ligand binding pocket of SmcR. It is currently unknown how Qstatin allosterically affects DNA binding through its interactions in the ligand binding domain. […] We therefore also assessed the effect of sulfonamide PTSP on the DNA binding activity of LuxR and SmcR in vitro. […] (Kim et al., 2018).
(§3) SmcR and LuxR were purified as described previously. EMSAs were conducted as described previously using oligonucleotides corresponding to the luxC and vvpE promoter sequences. ITC analysis was conducted using purified LuxR or His-tagged SmcR, each in gel-filtration buffer (25 mM Tris pH 7.5, 300 mM NaCl, 0.5 mM EDTA, 1 mM DTT, 2% DMSO). All molecules analyzed were diluted in the same buffer. The samples were degassed for 10 min by vacuum aspiration. Titrations were performed on a Nano-ITC (TA Instruments). […] Thermograms were analyzed using NanoAnalyze software with the independent binding model.

LuxR = LuxR (Vibrio harveyi, UniProt P21308); assay: ITC analysis of LuxR interaction with inhibitors; assay type: binding, V. campbellii; design: made in house; host or cells: E. coli BL21(DE3)
Description: (§4) To test the validity of the modelling predictions for PTSP, we performed isothermal titration calorimetry (ITC) to determine the binding affinity of SmcR and LuxR for PTSP. […] We noted that PTSP binding to both LuxR and SmcR had lower entropy and enthalpy compared to SmcR binding to Qstatin. […] Thus, we conclude that the efficacy of PTSP inhibition in vivo in these two Vibrio species correlates to the binding affinity determined in vitro for these two proteins.
as §3

[4] = tested on: V. coralliilyticus protease activity; assay: Protease assay (azocasein) in V. coralliilyticus; details: 2.5 μM PTSP vs DMSO
SmcR [5] = target: T1, SmcR; assay: ITC analysis of SmcR interaction with inhibitors; assay type: binding, V. vulnificus
Description: as §4, §3

V. vulnificus = assay: Growth of V. vulnificus with inhibitor; assay type: cell-based; details: high concentrations
Description: Many sulfonamide-containing compounds are known to target the folate synthesis pathway in bacteria and inhibit growth (bacteriostatic), and thus these “sulfa drugs” have been used as broad-spectrum antibiotics for decades (Hammoudeh et al., 2013, Roland et al., 1979). […] We also tested the stability of the inhibitors in bacterial cultures and the timing of the inhibitory effect.

[6] = tested on: PluxC-gfp reporter in V. coralliilyticus; assay: PluxC-gfp reporter in V. coralliilyticus strains
[7] = tested on: PluxC-gfp reporter in V. campbellii; assay: PluxC-gfp reporter in V. campbellii strains; details: Vibrio campbellii
[8] = tested on: PluxC-gfp reporter in V. vulnificus; assay: PluxC-gfp reporter in V. vulnificus strains; details: Vibrio vulnificus
[9] = tested on: PluxC-gfp reporter in V. parahaemolyticus; assay: PluxC-gfp reporter in V. parahaemolyticus strains; details: Vibrio parahaemolyticus

With `O=S(=O)(c1cccs1)n1ccc(-c2ccccc2)n1` [Compound 10B] the “Inhibition of OpaR in E. coli bioassay” value (OpaR) was “inhibited”, the “Inhibition of SmcR in E. coli bioassay” value (SmcR [1]; 25 μM PTSP) was “inhibited” and the “Inhibition of SmcR C170F” value (SmcR [1]; SmcR substitution C170F) was “abolished PTSP inhibition”. The “Inhibition of SmcR F75Y” value (SmcR [1]; SmcR substitution F75Y) was “abolished PTSP inhibition”, the “Inhibition of SmcR I96L” value (SmcR [1]; SmcR substitution I96L) was “not significantly different from wild-type SmcR” and the “Inhibition of SmcR V1401” value (SmcR [1]; SmcR substitution V1401) was “not significantly different from wild-type SmcR”. For the same compound, the “Protease activity of wild-type strain” value ([2]; 2.5 μM PTSP vs DMSO, V. vulnificus) was “significantly reduced protease activity”, the IC50 ([2]; ATCC27562, read-out: IC50 of protease inhibition, V. vulnificus ATCC 27562) was 6.8 nM and the IC50 ([2]; read-out: IC50 of protease inhibition, V. vulnificus CMPC6) was 78.1 nM. For the same compound, the IC50 ([2]; read-out: IC50 of protease inhibition, V. vulnificus YJ016) was 18.3 nM, the “DNA binding to SmcR” value (SmcR [3]) was “did not alter DNA binding” and the Ka (LuxR) was 2.3e+06 M⁻¹. The ΔG (LuxR) was -8.626 kcal/mol, the ΔH (LuxR) was -32.529 kcal/mol and the ΔS (LuxR) was −335.40 J/mol · K. For the same compound, the “−TΔS” value (LuxR) was 23.9 kcal/mol, the Kd (LuxR; 25° C.) was 513 nM and the “Protease activity of wild-type strain” value [4] was “significantly reduced protease activity”. The Ka (SmcR [5]) was 4.85e+06 M⁻¹, the ΔG (SmcR [5]) was -9.092 kcal/mol and the ΔH (SmcR [5]) was -33.963 kcal/mol. For the same compound, the ΔS (SmcR [5]) was −348.97 J/mol · K, the “−TΔS” value (SmcR [5]) was 24.869 kcal/mol and the Kd (SmcR [5]; 25° C., read-out: Kd) was 227 nM. The ΔG (SmcR [5]; listed as PTSP) was -9.08 kcal/mol, the Kd (SmcR [5]; read-out: Dissociation constant (Kd)) was 230 nM and the “Growth rate or growth yield” value (V. vulnificus) was “did not alter growth rate or growth yield”. The IC50 ([6]; read-out: IC50, V. coralliilyticus OCN008, luxCDABE reporter plasmid) was 2200 nM, the IC50 ([6]; read-out: Inhibition (IC50) of the PluxC-gfp reporter, Vcoral OCN 008) was 1430 nM and the IC50 ([6]; read-out: Inhibition (IC50) of the PluxC-gfp reporter, Vcoral OCN 014) was 2370 nM. It also gave an IC50 ([7]; ATCC25920, read-out: Inhibition (IC50) of the PluxC-gfp reporter, Vcamp ATCC 25920) of 30 nM, an IC50 ([7]; read-out: IC50, V. campbellii BB120, luxCDABE) of 140 nM and an IC50 ([7]; read-out: IC50, V. campbellii, b235) of 350 nM. It also gave an IC50 ([7]; read-out: Inhibition (IC50) of the PluxC-gfp reporter, Vcamp HY01) of 100 nM, an IC50 ([8]; ATCC27562, read-out: IC50, V. vulnificus ATCC 27562, luxCDABE reporter plasmid) of 40 nM and an IC50 ([8]; ATCC27562, read-out: Inhibition (IC50) of the PluxC-gfp reporter, Vvul ATCC 27562) of 1.96 nM. It also gave an IC50 ([8]; read-out: IC50, V. vulnificus, b235) of 2 nM, an IC50 ([8]; read-out: IC50 values for all three V. vulnificus clinical isolates, three clinical isolates) of 2 to 30 nM and an IC50 ([8]; read-out: Inhibition (IC50) of the PluxC-gfp reporter, Vvul CMPC6) of 29.5 nM. It also gave an IC50 ([8]; read-out: Inhibition (IC50) of the PluxC-gfp reporter, Vvul YJ016) of 3.78 nM, an IC50 ([9]; read-out: IC50, V. parahaemolyticus RIMD2210633, luxCDABE reporter plasmid) of 280 nM and an IC50 ([9]; read-out: Inhibition (IC50) of the PluxC-gfp reporter, Vpara 12-297/B) of 320 nM. For the same compound, the IC50 ([9]; read-out: Inhibition (IC50) of the PluxC-gfp reporter, Vpara D4) was 270 nM and the IC50 ([9]; read-out: Inhibition (IC50) of the PluxC-gfp reporter, Vpara RIMD 2210633) was 170 nM.
